# How the values were obtained:
# CD34^+ progenitor cells = test: PGE of HPRT with Cpf1 electroporation in non-pluripotent cells; format: cell-based, human; settings: primary cells
# Description: (§1) Cells were grown at 37° C. in a humidified incubator gassed with 5% CO2. Media was replaced every day for stem cells and every second day for non-pluripotent cell lines. Cell cultures were maintained 4-6 days until ˜80% confluency, and subcultured at a 1:6 to 1:10 dilution.
# (§2) The recombinant A.s. Cpf1 and S.p. Cas9 protein and electroporation enhancer was ordered from IDT (Coralville, USA) and nucleofection was done using the manufacturer's protocol, except for the following alterations. […] For multiplexing, only gRNAs and single stranded DNA donors were electroporated, since a Cas9n expressing iCRISPR-Cas9n hiPSC line was used. Cells were counted using the Countess Automated Cell Counter (Invitrogen).
# (§3) Three days after lipofection cells were dissociated using Accutase (SIGMA, A6964), pelleted, and resuspended in 15 μl QuickExtract (Epicentre, QE0905T). Incubation at 65° C. for 10 min, 68° C. for 5 min and finally 98° C. for 5 min was performed to yield ssDNA as a PCR template. Primers for each targeted loci of CALD1, KATNA1 and SLITRK1 containing adapters for Illumina sequencing were ordered from IDT (Coralville, USA). PCR was done in a T100 Thermal Cycler (Bio-Rad) using the KAPA2G Robust PCR Kit (Peqlab, 07-KK5532-03) with supplied buffer B and 3 μl of cell extract in a total volume of 25 μl. The thermal cycling profile of the PCR was: 95° C.
# CD4^+ T cells = test: as above; format: cell-based, human; settings: primary cells
# Description: as §1, §2, §3
smiles,measurement,setting,value
"NS(=O)(=O)OC[C@@H]1C[C@@H](n2ccc3c(N[C@H]4CCc5ccccc54)ncnc32)C[C@@H]1O [MLN4924, Pevonedistat]",effect on PGE efficiency,CD34^+ progenitor cells,disruptive effect
same,effect on PGE efficiency,CD4^+ T cells,disruptive effect
